Experimental data: patent US20170008888A1 (KYORIN PHARMACEUTICAL CO., LTD., priority 2014, published 2017)
Like-named read-outs stand apart in the source and are kept apart here.

Tests used:
Format in all cases: binding
JAK1 = target: T1, JAK1 (Homo sapiens, UniProt P23458); assay: Probe-based (AX9989) kinase profiling in Jurkat lysate: JAK1; settings: for inhibition at 0.1 µM: screening concentration 0.1 μM
T1 construct: screened for activity against several kinases in Jurkat cells; endogenous in cells; host or cells: Jurkat cell lysate
T1 sequence (P23458 whole entry): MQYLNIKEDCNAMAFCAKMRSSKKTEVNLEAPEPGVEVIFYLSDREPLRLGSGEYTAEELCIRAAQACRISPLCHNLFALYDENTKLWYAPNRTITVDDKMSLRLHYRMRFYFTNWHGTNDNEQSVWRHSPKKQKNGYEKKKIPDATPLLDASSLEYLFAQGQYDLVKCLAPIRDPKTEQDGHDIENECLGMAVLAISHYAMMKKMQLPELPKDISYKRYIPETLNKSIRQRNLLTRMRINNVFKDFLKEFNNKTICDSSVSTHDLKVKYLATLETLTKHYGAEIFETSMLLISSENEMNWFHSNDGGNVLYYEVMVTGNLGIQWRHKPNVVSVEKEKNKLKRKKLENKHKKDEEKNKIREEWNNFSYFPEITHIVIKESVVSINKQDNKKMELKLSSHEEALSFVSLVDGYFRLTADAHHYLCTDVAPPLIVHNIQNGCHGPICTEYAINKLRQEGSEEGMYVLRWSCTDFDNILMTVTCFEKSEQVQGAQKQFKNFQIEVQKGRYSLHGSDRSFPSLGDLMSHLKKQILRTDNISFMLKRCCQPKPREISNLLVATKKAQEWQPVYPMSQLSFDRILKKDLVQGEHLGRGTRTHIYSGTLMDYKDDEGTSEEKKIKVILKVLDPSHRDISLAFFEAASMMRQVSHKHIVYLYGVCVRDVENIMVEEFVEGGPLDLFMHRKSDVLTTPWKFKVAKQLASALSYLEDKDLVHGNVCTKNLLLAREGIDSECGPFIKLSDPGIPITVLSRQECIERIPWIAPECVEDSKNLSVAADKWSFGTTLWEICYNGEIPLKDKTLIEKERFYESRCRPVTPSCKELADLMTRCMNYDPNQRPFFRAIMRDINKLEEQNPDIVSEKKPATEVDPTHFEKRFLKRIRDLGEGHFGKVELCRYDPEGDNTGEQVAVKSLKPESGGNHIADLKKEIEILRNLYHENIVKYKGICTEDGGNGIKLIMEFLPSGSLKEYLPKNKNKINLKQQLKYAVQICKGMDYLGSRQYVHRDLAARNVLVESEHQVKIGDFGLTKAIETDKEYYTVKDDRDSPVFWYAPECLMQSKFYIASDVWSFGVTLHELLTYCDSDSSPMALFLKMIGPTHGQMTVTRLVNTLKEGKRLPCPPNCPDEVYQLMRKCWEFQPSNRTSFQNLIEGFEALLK
In short: (§1)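 Read-out: LC/MS intensity of desthiobiotinylated kinase active-site peptides, percent inhibition normalized to no-compound lysate. Jurkat lysate with 20 mM MnCl2 received compound for 15 min at room temperature, then 5 μM AX9989 probe; duplicates.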

[1] = target: T2, BRD4 bromodomain domain I [BRD4(1)] (Homo sapiens, UniProt O60885); assay: BRD4 bromodomain domain 1 inhibition assay (TR-FRET); settings: screening concentration 10 μM
T2 construct: BRD4 bromodomain domain I [BRD4(1)]; purchased Cayman Chemicals
In short: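 0.5% DMSO, in triplicate, using Cayman BRD4(1) TR-FRET protocol with slight modification. 670/620 nm ratio normalized to 10 μM JQ1, with DMSO control set as 0% inhibition.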

AurA = target: T3, AurA (Homo sapiens, UniProt O14965); assay: Probe-based (AX9989) kinase profiling in Jurkat lysate: AurA; settings: for inhibition at 0.1 µM: screening concentration 0.1 μM
T3 construct: screened for activity against several kinases in Jurkat cells; endogenous in cells; host or cells: Jurkat cell lysate
T3 sequence (O14965 1-403): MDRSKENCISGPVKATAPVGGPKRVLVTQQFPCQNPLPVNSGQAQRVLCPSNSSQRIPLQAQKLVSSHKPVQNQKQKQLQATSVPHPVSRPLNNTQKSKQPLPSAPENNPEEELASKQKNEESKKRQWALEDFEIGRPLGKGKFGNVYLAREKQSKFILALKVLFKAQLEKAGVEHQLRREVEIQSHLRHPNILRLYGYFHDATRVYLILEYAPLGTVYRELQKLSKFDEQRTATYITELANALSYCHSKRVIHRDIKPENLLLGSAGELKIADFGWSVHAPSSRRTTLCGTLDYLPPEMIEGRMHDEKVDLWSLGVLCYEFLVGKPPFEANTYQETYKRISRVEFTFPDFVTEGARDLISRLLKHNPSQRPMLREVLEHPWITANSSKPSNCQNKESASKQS
In short: as §1

AurB or AurC = assay: Probe-based (AX9989) kinase profiling in Jurkat lysate: AurB or AurC; settings: for AurB or AurC Inhibition % at indicated screening concentration: screening concentration 1 μM
In short: as §1

AMPKa1 or AMPKa2 = assay: Probe-based (AX9989) kinase profiling in Jurkat lysate: AMPKa1 or AMPKa2; settings: for AMPKa1 or AMPKa2 Inhibition % at indicated screening concentration: screening concentration 1 μM
In short: as §1

[2] = screening concentration 1 μM, read-out: JAK1 Inhibition % at indicated screening concentration
[3] = screening concentration 1 μM, read-out: AurA Inhibition % at indicated screening concentration
[4] = screening concentration 1.0 μM, read-out: Kinase inhibition % at indicated screening concentration: JAK1
[5] = screening concentration 1.0 μM, read-out: Kinase inhibition % at indicated screening concentration: AurA
[6] = read-out: Kinase inhibition % at indicated screening concentration: JAK1
[7] = read-out: Kinase inhibition % at indicated screening concentration: AurA

| SMILES | inhibition at 1 µM (JAK1; [2]) | inhibition at 10 µM [1] | inhibition at 1 µM (AurA; [3]) | AurB or AurC Inhibition % at indicated screening concentration (AurB or AurC) | AMPKa1 or AMPKa2 Inhibition % at indicated screening concentration (AMPKa1 or AMPKa2) | inhibition at 1 µM (JAK1; [4]) | inhibition at 1 µM (AurA; [5]) | Kinase inhibition % at indicated screening concentration: AurB or AurC (AurB or AurC; screening concentration 1.0 μM) | Kinase inhibition % at indicated screening concentration: AMPKa1 or AMPKa2 (AMPKa1 or AMPKa2; screening concentration 1.0 μM) | inhibition at 0.1 µM (JAK1; [6]) | inhibition at 0.1 µM (AurA; [7]) | Kinase inhibition % at indicated screening concentration: AurB or AurC (AurB or AurC; screening concentration 0.1 μM) | Kinase inhibition % at indicated screening concentration: AMPKa1 or AMPKa2 (AMPKa1 or AMPKa2; screening concentration 0.1 μM) |
| --- | --- | --- | --- | --- | --- | --- | --- | --- | --- | --- | --- | --- | --- |
| CCOc1cc(C(=O)N2CCC(N3CCN(C)CC3)CC2)ccc1Nc1cc2c(cn1)N(C)C(=O)c1ccccc1N2C [Compound 61] | – | > 85% | – | – | – | ≤ 35% | ≤ 35% | E (E is ≦35%) | E (E is ≦35%) | – | – | – | – |
| CCOc1cc(C(=O)N2CCC(OC)CC2)ccc1Nc1cc2c(cn1)N(C)C(=O)c1ccccc1N2C [Compound 63] | – | 70 to 85% | – | – | – | ≤ 35% | ≤ 35% | E (E is ≦35%) | E (E is ≦35%) | – | – | – | – |
| CN1C(=O)c2occc2N(C)c2cc(N[C@H]3CC[C@H](N)CC3)ncc21 [Compound 53] | – | 70 to 85% | – | – | – | ≤ 35% | ≤ 35% | E (E is ≦35%) | E (E is ≦35%) | – | – | – | – |
| CCOc1cc(C(=O)NCCn2ccnc2)ccc1Nc1cc2c(cn1)N(C)C(=O)c1ccccc1N2C [Compound 84] | – | < 70% | – | – | – | ≤ 35% | ≤ 35% | E (E is ≦35%) | E (E is ≦35%) | – | – | – | – |
| CCOc1cc(C(N)=O)ccc1Nc1cc2c(cn1)N(C)C(=O)c1ccccc1N2C [Compound 51] | – | < 70% | – | – | – | – | – | – | – | ≤ 35% | ≤ 35% | E (E is ≦35%) | E (E is ≦35%) |
| CCOc1cc(C(=O)N2CCCNCC2)ccc1Nc1cc2c(cn1)N(C)C(=O)c1ccccc1N2C [Compound 71] | – | > 85% | – | – | – | ≤ 35% | ≤ 35% | E (E is ≦35%) | E (E is ≦35%) | – | – | – | – |
| CCOc1cc(C(=O)N(C)CCN(C)C)ccc1Nc1cc2c(cn1)N(C)C(=O)c1ccccc1N2C [Compound 88] | – | > 85% | – | – | – | – | – | – | – | ≤ 35% | ≤ 35% | E (E is ≦35%) | E (E is ≦35%) |
| COc1cc(NS(C)(=O)=O)ccc1Nc1cc2c(cn1)N(C)C(=O)c1ccccc1N2C [Compound 73] | – | < 70% | – | – | – | ≤ 35% | ≤ 35% | E (E is ≦35%) | E (E is ≦35%) | – | – | – | – |
| CCOc1cc(C(=O)N2CCC[C@H](O)C2)ccc1Nc1cc2c(cn1)N(C)C(=O)c1ccccc1N2C [Compound 96] | – | > 85% | – | – | – | – | – | – | – | ≤ 35% | ≤ 35% | E (E is ≦35%) | E (E is ≦35%) |
| CCOc1cc(C(=O)NCCCN(CC)CC)ccc1Nc1cc2c(cn1)N(C)C(=O)c1ccccc1N2C [Compound 54] | – | > 85% | – | – | – | ≤ 35% | ≤ 35% | E (E is ≦35%) | E (E is ≦35%) | – | – | – | – |
| CCOc1cc(C(=O)NCCOCCO)ccc1Nc1cc2c(cn1)N(C)C(=O)c1ccccc1N2C [Compound 101] | – | 70 to 85% | – | – | – | ≤ 35% | ≤ 35% | E (E is ≦35%) | E (E is ≦35%) | – | – | – | – |

Results, then the compound that gave them:

| inhibition at 1 µM (JAK1; [2]) | inhibition at 10 µM [1] | inhibition at 1 µM (AurA; [3]) | AurB or AurC Inhibition % at indicated screening concentration (AurB or AurC) | AMPKa1 or AMPKa2 Inhibition % at indicated screening concentration (AMPKa1 or AMPKa2) | inhibition at 1 µM (JAK1; [4]) | inhibition at 1 µM (AurA; [5]) | Kinase inhibition % at indicated screening concentration: AurB or AurC (AurB or AurC; screening concentration 1.0 μM) | Kinase inhibition % at indicated screening concentration: AMPKa1 or AMPKa2 (AMPKa1 or AMPKa2; screening concentration 1.0 μM) | inhibition at 0.1 µM (JAK1; [6]) | inhibition at 0.1 µM (AurA; [7]) | Kinase inhibition % at indicated screening concentration: AurB or AurC (AurB or AurC; screening concentration 0.1 μM) | Kinase inhibition % at indicated screening concentration: AMPKa1 or AMPKa2 (AMPKa1 or AMPKa2; screening concentration 0.1 μM) | SMILES |
| --- | --- | --- | --- | --- | --- | --- | --- | --- | --- | --- | --- | --- | --- |
| ≤ 35% | 70 to 85% | ≤ 35% | E (E is ≦35%) | E (E is ≦35%) | – | – | – | – | – | – | – | – | CCOc1cc(C(=O)N2C[C@H]3CCN[C@H]3C2)ccc1Nc1cc2c(cn1)N(C)C(=O)c1ccccc1N2C [Compound T5] |
| – | 70 to 85% | – | – | – | ≤ 35% | ≤ 35% | E (E is ≦35%) | E (E is ≦35%) | – | – | – | – | CCOc1cc(C(=O)N2CCN(CC)CC2)ccc1Nc1cc2c(cn1)N(C)C(=O)c1ccccc1N2C [Compound 108] |
| ≤ 35% | > 85% | ≤ 35% | E (E is ≦35%) | E (E is ≦35%) | – | – | – | – | – | – | – | – | CCOc1cc(C(=O)N2CCC(NC(C)C)C2)ccc1Nc1cc2c(cn1)N(C)C(=O)c1ccccc1N2C (stereo not drawn) [Compound T4] |
| – | < 70% | – | – | – | ≤ 35% | ≤ 35% | E (E is ≦35%) | E (E is ≦35%) | – | – | – | – | CCOc1cc(C(=O)NCCc2ccncc2)ccc1Nc1cc2c(cn1)N(C)C(=O)c1ccccc1N2C [Compound 107] |
| – | < 70% | – | – | – | ≤ 35% | ≤ 35% | E (E is ≦35%) | E (E is ≦35%) | – | – | – | – | Cc1cc(CN2CCCC2)ccc1Nc1cc2c(cn1)N(C)C(=O)c1ccccc1N2C [Compound 106, 5,11-dimethyl-3-(2-methyl-4-(pyrrolidin-1-ylmethyl)phenylamino)-5H-benzo[e]pyrido[3,4-b][1,4]diazepin-10(11H)-one] |
| – | < 70% | – | – | – | ≤ 35% | ≤ 35% | E (E is ≦35%) | E (E is ≦35%) | – | – | – | – | CN1C(=O)c2ccccc2N(C)c2cc(NC3CCOCC3)ncc21 [Compound 102] |
| – | 70 to 85% | – | – | – | ≤ 35% | ≤ 35% | E (E is ≦35%) | E (E is ≦35%) | – | – | – | – | CCOc1cc(C(=O)N(CC)CCN(CC)CC)ccc1Nc1cc2c(cn1)N(C)C(=O)c1ccccc1N2C [Compound 122] |
| – | > 85% | – | – | – | – | – | – | – | ≤ 35% | ≤ 35% | E (E is ≦35%) | E (E is ≦35%) | CCOc1cc(C(=O)N2CC(N3CCCCC3)C2)ccc1Nc1cc2c(cn1)N(C)C(=O)c1ccccc1N2C [Compound 114] |
| – | 70 to 85% | – | – | – | ≤ 35% | ≤ 35% | E (E is ≦35%) | E (E is ≦35%) | – | – | – | – | CCOc1cc(C(=O)NCCN2CCCC2)ccc1Nc1cc2c(cn1)N(C)C(=O)c1ccccc1N2C [Compound 105] |
| – | > 85% | – | – | – | ≤ 35% | ≤ 35% | E (E is ≦35%) | E (E is ≦35%) | – | – | – | – | CCOc1cc(C(=O)N2CCOCC2)ccc1Nc1cc2c(cn1)N(C)C(=O)c1ccccc1N2C [Compound 111] |
